Test systems include CAKI-1 renal; CCRF-CEM leukemia; HT29 colon; MCF7 breast; IGROV1 ovarian; ACHN renal; HS 578T breast; SK-MEL-5 melanoma; NCI/ADR-RES ovarian; PC-3 prostate.
Holding throughout (experiment): DTP human tumour cell line panel, 48 h

Where “and” joins values, the source holds several entries; their conditions need not be identical. Equal values may be shown once.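 Exposure lasted 48 hours, with cells grown in 96-well plates and compounds tested at five concentrations. GI50 marks 50% less growth. TGI: total growth inhibition.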

Take `O=C1Nc2ccc(C(=O)c3ccco3)cc2/C1=C/c1cc(Cl)c(O)c(Cl)c1`: the GI50 (in general, the concentration at which growth is held to half of that of the control) in the experiment with CAKI-1 renal was 1.72 µM; with CCRF-CEM leukemia, 1.76 µM; in the experiment on HT29 colon it was 5.75 µM; in the experiment with MCF7 breast it was 6.1 µM; in the experiment on IGROV1 ovarian it was 3.36 µM; in the experiment with ACHN renal it was 2.14 µM. The GI50 with HS 578T breast was 4.94 µM; in the experiment with SK-MEL-5 melanoma, 3.43 µM; in the experiment on NCI/ADR-RES ovarian, 9.61 µM; with PC-3 prostate, 6.52 µM. In addition, the TGI (usually the concentration giving total growth inhibition) with CAKI-1 renal is above 20.9 µM; in the experiment with CCRF-CEM leukemia it was above 25 µM; with HT29 colon it was above 21.2 µM; with MCF7 breast, above 25 µM; in the experiment with IGROV1 ovarian it was above 20.7 µM; with ACHN renal, 11.1 µM. The TGI in the experiment with HS 578T breast is above 21.7 µM; in the experiment with SK-MEL-5 melanoma, 6.88 µM; with NCI/ADR-RES ovarian it was above 25 µM; with PC-3 prostate, above 24.1 µM.

For the compound `CCC(Sc1cc(Cl)c(C)cc1S(=O)(=O)Nc1nc(N)nc(N(C)C)n1)C(=O)O` (stereo unspecified), the TGI with CAKI-1 renal, with CCRF-CEM leukemia, in the experiment on HT29 colon, in the experiment on MCF7 breast, in the experiment with IGROV1 ovarian and in the experiment with ACHN renal was above 10 µM in each case. Also, the TGI with HS 578T breast, in the experiment with SK-MEL-5 melanoma, in the experiment with NCI/ADR-RES ovarian and in the experiment with PC-3 prostate was above 10 µM each time.

For `COc1cc(OC)cc(C2CC(=O)Nc3c2c(C)nn3-c2nc3ccccc3[nH]2)c1` (stereo unspecified), the GI50 in the experiment with CAKI-1 renal is 3.36 µM; with CCRF-CEM leukemia, 0.792 µM; in the experiment on HT29 colon, 2.75 µM; with MCF7 breast, 2.94 µM; in the experiment with IGROV1 ovarian, 2.74 µM; in the experiment with ACHN renal it was 3.94 µM. For the same compound, the GI50 in the experiment on HS 578T breast was 3.06 µM; with SK-MEL-5 melanoma, 1.97 µM; in the experiment on NCI/ADR-RES ovarian, 4.47 µM; with PC-3 prostate, 3.09 µM. For the same compound, the TGI in the experiment with CAKI-1 renal is 11 µM; with CCRF-CEM leukemia, above 100 µM; in the experiment on HT29 colon it was 7.43 µM; with MCF7 breast, above 100 µM; in the experiment on IGROV1 ovarian it was 7.76 µM; in the experiment with ACHN renal, 42.4 µM. Further, the TGI in the experiment with HS 578T breast was 39.9 µM; in the experiment on SK-MEL-5 melanoma, 4.27 µM; in the experiment on NCI/ADR-RES ovarian it was above 100 µM; in the experiment with PC-3 prostate it was 41.7 µM.

As for `CCOC(=O)Nc1nc2ccc(Cn3cccc3)cc2[nH]1`, the TGI in the experiment with CAKI-1 renal is above 100 µM; with CCRF-CEM leukemia, 25.1 µM; in the experiment on HT29 colon it was above 56.3 µM; in the experiment on MCF7 breast, above 100 µM; in the experiment with IGROV1 ovarian, above 100 µM; with ACHN renal, above 100 µM. Further, the TGI was above 100 µM in the experiment with HS 578T breast, above 38.6 µM with SK-MEL-5 melanoma, 21.2 µM in the experiment on NCI/ADR-RES ovarian and above 38.2 µM in the experiment on PC-3 prostate.

For the compound `CC1=C2[C@@H](CC1)[C@]1(C)O[C@@](C3CCCCC3)(C[C@H]1OC(=O)CO)[C@H]2OC(=O)/C=C/c1ccccc1`, the GI50 is 5.92 µM in the experiment with CAKI-1 renal; 7.45 µM with CCRF-CEM leukemia; 6.1 µM with HT29 colon; 3.09 µM in the experiment on MCF7 breast; 18.7 µM in the experiment on IGROV1 ovarian; 0.0331 µM in the experiment with ACHN renal. Moreover, the GI50 in the experiment with HS 578T breast is 0.0202 µM; with SK-MEL-5 melanoma, 12 µM; with NCI/ADR-RES ovarian, 0.186 µM; with PC-3 prostate, 6.33 µM. The TGI amounted to 22 µM in the experiment on CAKI-1 renal; 24.1 µM in the experiment on CCRF-CEM leukemia; 16.9 µM in the experiment on HT29 colon; 13.4 µM in the experiment with MCF7 breast; 44.1 µM with IGROV1 ovarian; 4.25 µM with ACHN renal. In addition, the total growth inhibition concentration (TGI) in the experiment with HS 578T breast came out at 0.281 µM; with SK-MEL-5 melanoma, 24.9 µM; with NCI/ADR-RES ovarian it was 11.6 µM; with PC-3 prostate, 21.2 µM.

As to `CO[C@@H]1/C=C\C=C(/C)C(=O)NC2=CC(=O)C(NCCN(C)C)=C(C[C@@H](C)C[C@@H](OC)[C@@H](O)[C@H](C)/C=C(\C)[C@H]1OC(N)=O)C2=O`, the GI50 was 0.485 µM and 1.38 µM in the experiment on CAKI-1 renal; 0.0344 µM in the experiment with CCRF-CEM leukemia; below 0.01 µM with HT29 colon; 0.0164 µM in the experiment on IGROV1 ovarian; < 0.0167 µM and 0.0737 µM in the experiment with ACHN renal; < 0.01 µM and 0.0238 µM with SK-MEL-5 melanoma. In addition, the GI50 in the experiment on NCI/ADR-RES ovarian was 5.55 µM and 17.7 µM; in the experiment on PC-3 prostate, < 0.01 µM and 0.0264 µM. In addition, the concentration for total growth inhibition (TGI) was 12.2 µM and 29.2 µM with CAKI-1 renal; 3.23 µM and 9.76 µM in the experiment with CCRF-CEM leukemia; 4.54 µM and 3.96 µM in the experiment with HT29 colon; 1.88 µM and 3.8 µM with MCF7 breast; 1.85 µM and 1.99 µM with IGROV1 ovarian; 38.3 µM and 76.3 µM in the experiment with HS 578T breast. For the same compound, the TGI with SK-MEL-5 melanoma was 3.12 µM and 1.12 µM; in the experiment on NCI/ADR-RES ovarian, 29.6 µM and 62.7 µM; in the experiment on PC-3 prostate, 33.6 µM and 17.8 µM.

For `CN(C)C=Nc1cccc2nsnc12`, the TGI in the experiment on CAKI-1 renal, with CCRF-CEM leukemia, in the experiment with HT29 colon, in the experiment on MCF7 breast, in the experiment with IGROV1 ovarian and in the experiment on ACHN renal was above 100 µM throughout. Besides, the TGI in the experiment on HS 578T breast, with SK-MEL-5 melanoma, in the experiment with NCI/ADR-RES ovarian and in the experiment with PC-3 prostate was above 100 µM throughout.

In the case of `O=C1c2ccccc2-c2c1c1ccccc1c(=O)n2CCCNCCCn1ccnc1`, the GI50 is 0.446 µM in the experiment with CAKI-1 renal; 0.246 µM with CCRF-CEM leukemia; 1.21 µM in the experiment on HT29 colon; 0.772 µM in the experiment on MCF7 breast; 0.442 µM in the experiment with IGROV1 ovarian; 0.252 µM in the experiment with ACHN renal. Also, the GI50 with HS 578T breast is 0.545 µM; in the experiment with SK-MEL-5 melanoma it was 0.379 µM; in the experiment with NCI/ADR-RES ovarian, 1.66 µM; with PC-3 prostate, 1.58 µM. The total growth inhibition concentration (TGI) in the experiment with CAKI-1 renal is 2.95 µM; in the experiment on CCRF-CEM leukemia it was 1.71 µM; in the experiment on HT29 colon, above 33.4 µM; in the experiment with MCF7 breast, 12.7 µM; with ACHN renal it was 0.879 µM; with HS 578T breast, 5 µM. The TGI amounted to 1.68 µM in the experiment on SK-MEL-5 melanoma, 4.45 µM in the experiment on NCI/ADR-RES ovarian and 9.75 µM in the experiment with PC-3 prostate.

As for `CC12OC(c3ccccc3)=CC(c3ccc(Cl)cc3)=C1C(c1ccccc1)=CC2=O` (stereo unspecified), the GI50 in the experiment with CAKI-1 renal was above 100 µM; in the experiment with CCRF-CEM leukemia, 56.2 µM; in the experiment with HT29 colon, 27.7 µM; with MCF7 breast, 60.8 µM; in the experiment on IGROV1 ovarian it was above 100 µM; with ACHN renal, 55.4 µM. In addition, the GI50 is above 100 µM in the experiment with HS 578T breast, 42.1 µM in the experiment with SK-MEL-5 melanoma, 55.9 µM with NCI/ADR-RES ovarian and 34.4 µM with PC-3 prostate. Besides, the TGI in the experiment with CAKI-1 renal, in the experiment on CCRF-CEM leukemia, in the experiment with HT29 colon, in the experiment on MCF7 breast, in the experiment on IGROV1 ovarian and in the experiment with ACHN renal was above 100 µM each time. Moreover, the TGI in the experiment on HS 578T breast, in the experiment with SK-MEL-5 melanoma, in the experiment on NCI/ADR-RES ovarian and in the experiment with PC-3 prostate was above 100 µM each time.

For the compound `O=c1c(Oc2ccc(F)cc2F)cc2cnc(NC3CCOCC3)nc2n1C1CCS(=O)(=O)CC1`, the GI50 in the experiment with CAKI-1 renal, with CCRF-CEM leukemia, in the experiment with HT29 colon, in the experiment on MCF7 breast, in the experiment with IGROV1 ovarian and in the experiment with ACHN renal was above 25 µM in each case. For the same compound, the GI50 in the experiment with HS 578T breast, in the experiment on SK-MEL-5 melanoma, with NCI/ADR-RES ovarian and in the experiment with PC-3 prostate was above 25 µM throughout. Also, the TGI in the experiment on CAKI-1 renal, with CCRF-CEM leukemia, in the experiment on HT29 colon, in the experiment with MCF7 breast, in the experiment on IGROV1 ovarian and in the experiment on ACHN renal was above 25 µM throughout. Also, the TGI in the experiment with HS 578T breast, in the experiment with SK-MEL-5 melanoma, in the experiment on NCI/ADR-RES ovarian and in the experiment with PC-3 prostate was above 25 µM each time.

For `CC1(C)C2CCC3=C(CCC4(C)C5C[C@](C)(C(=O)O)CC[C@]5(C)CC[C@]34C)[C@@]2(C)CC[C@@H]1O` (stereo partly specified), the TGI with CAKI-1 renal stood at 37.7 µM; with CCRF-CEM leukemia, 36.3 µM; with HT29 colon, 33 µM; with MCF7 breast, 40.4 µM; with IGROV1 ovarian, 49.4 µM; with ACHN renal, 29.9 µM. The TGI in the experiment on HS 578T breast stood at 59.1 µM; with SK-MEL-5 melanoma, 68.7 µM; in the experiment with NCI/ADR-RES ovarian, 36 µM; in the experiment with PC-3 prostate, 29.1 µM.

Turning to `CC(=O)C(=[N+]=[N-])C(=O)NCC#N`, the TGI in the experiment on CAKI-1 renal, in the experiment on CCRF-CEM leukemia, with HT29 colon, in the experiment with MCF7 breast, in the experiment with IGROV1 ovarian and in the experiment with ACHN renal was above 10 µM in each case. Further, the TGI in the experiment on HS 578T breast, with SK-MEL-5 melanoma, with NCI/ADR-RES ovarian and with PC-3 prostate was above 10 µM in each case.

Turning to `CCOC(=O)c1cc(C#N)c(=O)n(/N=C(\C)c2ccncc2)c1O`, the GI50 with CAKI-1 renal, with CCRF-CEM leukemia, in the experiment on HT29 colon, in the experiment on MCF7 breast, in the experiment with IGROV1 ovarian and with ACHN renal was above 100 µM in each case. Moreover, the GI50 with HS 578T breast, with SK-MEL-5 melanoma, in the experiment with NCI/ADR-RES ovarian and in the experiment on PC-3 prostate was above 100 µM throughout. Also, the TGI in the experiment on CAKI-1 renal, in the experiment with CCRF-CEM leukemia, in the experiment with HT29 colon, in the experiment with MCF7 breast, in the experiment with IGROV1 ovarian and with ACHN renal was above 100 µM in each case. The TGI in the experiment on HS 578T breast, with SK-MEL-5 melanoma, in the experiment on NCI/ADR-RES ovarian and with PC-3 prostate was above 100 µM throughout.

Values taken from PubChem BioAssay (NCI).
